Inhibition in vivo data for ten compounds are collected here from patent US9890146B2, “Compound having selective EP2 agonist activity” (ONO PHARMACEUTICAL CO., LTD., priority 2014, dated 2018).

The subject of this experiment is male monkey (a cynomolgus monkey). As to the kind of experiment: Intraocular pressure lowering activity after ocular instillation. In kind it is in vivo. The note with it: Primates, in Macaca fascicularis, topical, maximum rate during 24 hours after ocular instillation of 30 μL, conscious monkey; for inhibition in vivo at 10 µg/mL: administration concentration 10 μg/mL; for inhibition in vivo at 30 µg/mL: administration concentration 30 μg/mL; for inhibition in vivo at 3 µg/mL: administration concentration 3 μg/mL. The protocol: As can be easily understood by a person skilled in the art, in an in vivo test, since regarding all test compounds, carboxylic acid which is an active body has poor corneal permeability, pharmacological action of the active body was evaluated by ocular instillation administration of a compound which had been converted into an ester such as an ethyl ester or an isopropyl ester, or an alcohol.
A test compound-containing solution (30 μL) which had been adjusted to each of various concentrations was ocular instillation-administered to the left or right eye of a male monkey (a cynomolgus monkey) under consciousness. An intraocular pressure after administration was measured with time from administration initiation to after 24 hours. Upon measurement of an intraocular pressure, a cynomolgus monkey was fixed on a monkey chair, and the monkey was anesthetized by ocular instillation-administering an ocular surface anesthetic (Benoxil eye drops 0.4% Santen Pharmaceutical Co., Ltd.). After mounting of a blepharostat (Handaya Co., Ltd.), an intraocular pressure of both eyes was measured (7 to 8 examples per group) using a pneumatic applanation flat tonometer (Model 30 Classic, REICHERT). A difference between an intraocular pressure value before the administration of a test substance and an intraocular pressure value after the administration of the test substance was calculated as an intraocular pressure lowering rate in accordance with the following equation, and the sustainability of intraocular eye lowering action was evaluated using a maximum intraocular pressure lowering rate during measurement.
The administered concentrations were determined based on the EP2 agonist activities measured by the above-mentioned method.

Each structure is given as a SMILES string.

`CSc1cc(OC[C@@H]2[C@H]3CC[C@H](c4nc(CO)cs4)O[C@H]3C[C@@H]2O)ccc1C` [10(12), (2R,4aR,5S,6S,7aS)-2-[4-(hydroxymethyl)-1,3-thiazol-2-yl]-5-{[4-methyl-3-(methylthio)phenoxy]methyl}octahydrocyclopenta[b]pyran-6-ol] had an inhibition in vivo at 0.3 µg/mL (administration concentration 0.3 μg/mL) of 33%. `OCc1csc([C@H]2CC[C@@H]3[C@@H](COc4ccc5c(c4)CCCCC5)[C@@H](O)C[C@@H]3O2)n1` [10(16), (2R,4aR,5S,6S,7aS)-2-[4-(hydroxymethyl)-1,3-thiazol-2-yl]-5-[(6,7,8,9-tetrahydro-5H-benzo[7]annulen-2-yloxy)methyl]octahydrocyclopenta[b]pyran-6-ol] displayed an inhibition in vivo at 10 µg/mL of 45%. On to `OCc1csc([C@H]2CC[C@@H]3[C@@H](COc4ccc5[nH]ccc5c4)[C@H](O)C[C@@H]3O2)n1` [2(5), (2R,4aR,5S,6R,7aS)-2-[4-(hydroxymethyl)-1,3-thiazol-2-yl]-5-[(1H-indol-5-yloxy)methyl]octahydrocyclopenta[b]pyran-6-ol], for which testing at 30 µg/mL gave an inhibition in vivo of 48%. Compound `Cc1cc(OC[C@@H]2[C@H]3CC[C@H](c4nc(CO)cs4)O[C@H]3C[C@H]2O)ccc1Cl` [2(13), (2R,4aR,5S,6R,7aS)-5-[(4-chloro-3-methylphenoxy)methyl]-2-[4-(hydroxymethyl)-1,3-thiazol-2-yl]octahydrocyclopenta[b]pyran-6-ol] returned an inhibition in vivo at 3 µg/mL of 31%. Turning to `OCc1csc([C@H]2CC[C@@H]3[C@@H](COc4ccc5c(c4F)CCC5)[C@@H](O)C[C@@H]3O2)n1` [10(22), (2R,4aR,5S,6S,7aS)-5-{[(4-fluoro-2,3-dihydro-1H-inden-5-yl)oxy]methyl}-2-[4-(hydroxymethyl)-1,3-thiazol-2-yl]octahydrocyclopenta[b]pyran-6-ol], 3 µg/mL produced 43% inhibition in vivo. As for `OCc1csc([C@H]2CC[C@@H]3[C@@H](COc4ccc5c(c4)CCCC5)[C@@H](O)C[C@@H]3O2)n1` [10(7), (2R,4aR,5S,6S,7aS)-2-[4-(hydroxymethyl)-1,3-thiazol-2-yl]-5-[(5,6,7,8-tetrahydro-2-naphthalenyloxy)methyl]octahydrocyclopenta[b]pyran-6-ol], at 10 µg/mL the inhibition in vivo was 41%. For `OCc1csc([C@H]2CC[C@@H]3[C@@H](COc4cccc5c4CCC5)[C@H](O)C[C@@H]3O2)n1` [2(14), (2R,4aR,5S,6R,7aS)-5-[(2,3-dihydro-1H-inden-4-yloxy)methyl]-2-[4-(hydroxymethyl)-1,3-thiazol-2-yl]octahydrocyclopenta[b]pyran-6-ol], 30 µg/mL produced 45% inhibition in vivo. Consider `OCc1csc([C@H]2CC[C@@H]3[C@@H](COc4ccc(Cl)c(C5CC5)c4)[C@H](O)C[C@@H]3O2)n1` [2(10), (2R,4aR,5S,6R,7aS)-5-[(4-chloro-3-cyclopropylphenoxy)methyl]-2-[4-(hydroxymethyl)-1,3-thiazol-2-yl]octahydrocyclopenta[b]pyran-6-ol], for which the inhibition in vivo at 10 µg/mL came to 31%. In the case of `Cc1cc(OC[C@@H]2[C@H]3CC[C@H](c4nc(C(=O)OC(C)C)cs4)O[C@H]3C[C@H]2O)ccc1[N+](=O)[O-]` [3(3), isopropyl 2-{(2R,4aR,5S,6R,7aS)-6-hydroxy-5-[(3-methyl-4-nitrophenoxy)methyl]octahydrocyclopenta[b]pyran-2-yl}-1,3-thiazole-4-carboxylate], 3 µg/mL produced 33% inhibition in vivo. The compound `OCc1csc([C@H]2CC[C@@H]3[C@@H](COc4ccc5c(c4F)CCC5)[C@H](O)C[C@@H]3O2)n1` [2(16), (2R,4aR,5S,6R,7aS)-5-{[(4-fluoro-2,3-dihydro-1H-inden-S-yl)oxy]methyl}-2-[4-(hydroxymethyl)-1,3-thiazol-2-yl]octahydrocyclopenta[b]pyran-6-ol] yielded an inhibition in vivo at 30 µg/mL of 51%.
